Measurements reported in US20240197750A1, “CEFTIBUTEN DOSING REGIMENS” (QPEX Biopharma, Inc., priority 2021, published 2024).

How the values were obtained:
[1] = Pharmacokinetics of single and multiple oral doses of ceftibuten in healthy adult subjects; format: in vivo, human; details: for dose proportionality of exposure (Cmax, AUC0-12, AUC0-∞): doses of 400, 600 and 800 mg of ceftibuten
Description: (§1) A double-blind, randomized, placebo-controlled, sequential ascending single- and multiple dose study of ceftibuten in healthy adult subjects was conducted. There were four cohorts of 10 subjects each who received both single and multiple oral doses (8 active and 2 placebo).
Dose proportionality was examined graphically and using an ANOVA test of the dose-normalized Cmax, AUC0-12 and AUC0-∞ values. […] The AUC0-12 exposure of cis-ceftibuten is shown in FIG. 1 and the AUC0-12 exposure of trans-ceftibuten is shown in FIG. 2, showing that increases were dose proportional.

[2] = Safety of single and multiple ascending oral doses of ceftibuten in healthy adult subjects; format: in vivo
Description: as §1
The event of nausea occurred in one subject in the SAD period following single administration of ceftibuten and the event of […] occurred in one subject in the MAD period following administration of the ceftibuten. […] The nausea was considered to be moderate in severity and diarrhea considered to be mild in severity with both events deemed by the investigator to be related to the study drug. The nausea persisted from Day 1 dose (SAD) until after Day 4 morning dose (MAD), despite treatment with concomitant medications. […] The incidence of treatment-related TEAEs was similar in the 400 mg (1 [12.5%] of 8 subjects) and 600 mg (2 [25.0%] of 8 subjects) ceftibuten and Pooled Placebo groups (3 [37.5%] of 8 subjects). […] The highest incidence was reported in the highest ceftibuten dose (800 mg). The most common gastrointestinal TEAEs in the 800 mg group during the MAD period were nausea in 4 out of 16 subjects (25.0%), diarrhea in 4 of 16 (25.0%), abdominal pain in 3 of 16 (18.8%), upper abdominal pain in 3 of 16 (18.8%) and abdominal discomfort in 2 of 16 subjects (12.5%). Most Gastrointestinal Disorder TEAEs were transient and mild in severity with no intervention required. […] All events were asymptomatic, resolved spontaneously after the completion of study treatment, and were not associated with elevations of alkaline phosphatase or bilirubin. • There was no trend in abnormalities that were NCS in hematology, coagulation, or urinalysis parameters.

[3] = tested on: 99 strains of Enterobacterales; experiment: Resistance development study: mutant prevention concentration (MPC) of Compound 1 with ceftibuten; format: cell-based
Description: 99 strains of Enterobacterales were used in resistance development studies using ceftibuten at 1 or 2 μg/ml in combination with various concentrations of the following β-lactamase inhibitor:
Compound 1 is described in PCT Publication No. WO 2018/005662, which is incorporated herein by reference in its entirety. Concentrations of Compound 1 included 1, 2, 4 and 8 μg/ml. The goal of the study was to identify the concentration of Compound 1 (MPC, mutant prevention concentration) that will prevent appearance of mutants at two different concentrations of ceftibuten.

[4] = multiple oral doses 400 mg ceftibuten BID
[5] = multiple oral doses 600 mg ceftibuten BID
[6] = multiple oral doses 800 mg ceftibuten BID
[7] = single oral dose 400 mg ceftibuten
[8] = single oral dose 600 mg ceftibuten
[9] = single oral dose 800 mg ceftibuten

| SMILES | terminal half-life ([1]; 400-800 mg ceftibuten oral) [h] | time of peak plasma concentration post-dose ([1]; 400-800 mg ceftibuten oral) [h] | urinary recovery, % of the administered dose ([1]; after multiple doses) | urinary recovery, % of the administered dose ([1]; after single doses) | dose proportionality of exposure (Cmax, AUC0-12, AUC0-∞) [1] | mean maximum plasma concentration [1, 4] [µg/mL] | mean maximum plasma concentration [1, 5] [µg/mL] | mean maximum plasma concentration [1, 6] [µg/mL] | mean maximum plasma concentration [1, 7] [µg/mL] | mean maximum plasma concentration [1, 8] [µg/mL] | mean maximum plasma concentration [1, 9] [µg/mL] | also measured |
| --- | --- | --- | --- | --- | --- | --- | --- | --- | --- | --- | --- | --- |
| Nc1nc(/C(=C/CC(=O)O)C(=O)N[C@@H]2C(=O)N3C(C(=O)O)=CCS[C@H]23)cs1 (relative stereo) [cis-ceftibuten] | 2.3 to 3.1 | 2.3 to 3.0 | 75.8-100% | 59.5-86.9% | increased proportionally | 21.7 | 28.1 | 38.8 | 17.6 | 24.1 | 28.1 | renal clearance ([1]; 400-800 mg ceftibuten oral): 2.9 to 4.2 L/h; total body clearance ([1]; 400-800 mg ceftibuten oral): 3.9 to 5.0 L/h |
| Nc1nc(/C(=C/CC(=O)O)C(=O)N[C@@H]2C(=O)N3C(C(=O)O)=CCS[C@H]23)cs1 [ceftibuten] |  |  |  |  |  |  |  |  |  |  |  | frequency of reported TEAEs versus dose ([2]; MAD period, 400-800 mg BID): did not increase with increasing ceftibuten dose; serious, severe, life-threatening TEAEs or TEAEs resulting in death ([2]; SAD and MAD periods): no serious, severe, life-threatening TEAEs, or TEAEs resulting in death; frequency of reported TEAEs versus dose ([2]; SAD period, 400-800 mg): did not increase with increasing ceftibuten dose; ALT elevations ([2]; human, in vivo): incidence and severity of which did not increase with increasing ceftibuten dose; abnormalities in ECG parameters or physical examination ([2]; human, in vivo): no CS abnormalities; number of TEAEs reported ([2]; human, in vivo): 44; severity of TEAEs ([2]; human, in vivo): All TEAEs were mild, regardless of causality, with the exception of 2 TEAEs; vital sign parameters (blood pressure, pulse rate, body temperature, respiratory rate) ([2]; human, in vivo): no trends in changes from Baseline |
| O=C([O-])c1c(F)ccc2c1O[B-](O)(O)[C@@H]1C[C@H]21.[Na+].[Na+] [Compound 1] |  |  |  |  |  |  |  |  |  |  |  | % Strains with Compound 1 MPC <= 4 ug/ml ([3]; ceftibuten at 1 μg/ml, strains with Ceftibuten/Compound 1 MIC 0.125 (20 strains)): 90.0%; % Strains with Compound 1 MPC <= 4 ug/ml ([3]; ceftibuten at 1 μg/ml, strains with Ceftibuten/Compound 1 MIC 0.25 (16 strains)): 56.3%; % Strains with Compound 1 MPC <= 4 ug/ml ([3]; ceftibuten at 1 μg/ml, strains with Ceftibuten/Compound 1 MIC 0.5 (14 strains)): 21.4%; % Strains with Compound 1 MPC <= 4 ug/ml ([3]; ceftibuten at 1 μg/ml, strains with Ceftibuten/Compound 1 MIC 1 (12 strains)): 8.3%; % Strains with Compound 1 MPC <= 4 ug/ml ([3]; ceftibuten at 1 μg/ml, strains with Ceftibuten/Compound 1 MIC 2 (7 strains)): 28.6%; % Strains with Compound 1 MPC <= 4 ug/ml ([3]; ceftibuten at 1 μg/ml, strains with Ceftibuten/Compound 1 MIC <=0.06 (30 strains)): 96.7%; % Strains with Compound 1 MPC <= 4 ug/ml ([3]; ceftibuten at 2 μg/ml, strains with Ceftibuten/Compound 1 MIC 0.125 (20 strains)): 95.0%; % Strains with Compound 1 MPC <= 4 ug/ml ([3]; ceftibuten at 2 μg/ml, strains with Ceftibuten/Compound 1 MIC 0.25 (16 strains)): 87.5%; % Strains with Compound 1 MPC <= 4 ug/ml ([3]; ceftibuten at 2 μg/ml, strains with Ceftibuten/Compound 1 MIC 0.5 (14 strains)): 57.1%; % Strains with Compound 1 MPC <= 4 ug/ml ([3]; ceftibuten at 2 μg/ml, strains with Ceftibuten/Compound 1 MIC 1 (12 strains)): 16.7%; % Strains with Compound 1 MPC <= 4 ug/ml ([3]; ceftibuten at 2 μg/ml, strains with Ceftibuten/Compound 1 MIC 2 (7 strains)): 28.6%; % Strains with Compound 1 MPC <= 4 ug/ml ([3]; ceftibuten at 2 μg/ml, strains with Ceftibuten/Compound 1 MIC <=0.06 (30 strains)): 100.0% |
| Nc1nc(/C(=C\CC(=O)O)C(=O)N[C@@H]2C(=O)N3C(C(=O)O)=CCS[C@H]23)cs1 (relative stereo) [trans-ceftibuten] | 3.0 to 3.6 | 3.3 to 4.8 | 14.1-16.8% | 9.3-12.5% | increased proportionally | 1.4 | 1.9 | 2.8 | 1.1 | 1.5 | 2.2 |  |
